What was measured:
PPV = test: Inactivation of PPV, infectiousness titration; format: cell-based, Porcine parvovirus
BVDV = test: Inactivation of BVDV, infectiousness titration; format: cell-based, Bovine viral diarrhoea virus; settings: Venimmun + BVDV; Acriflavine 0.001 mg/ml; 37° C.; 3 h
IBRV = test: Inactivation of IBRV, infectiousness titration; format: cell-based, Infectious bovine rhinotracheitis virus; settings: for Titer reduction / Treatment titer: 45° C.
Beriplex ® Factor II = Beriplex ® Factor II (Homo sapiens, UniProt P00734); test: Clotting activity of Beriplex after virus inactivation; format: biochemical; settings: 3 hours 37° C.
Haemate ® Factor VIII = test: Clotting activity of Haemate after virus inactivation; format: biochemical; settings: for Activity (clotting activity): Haemate ® Factor VIII, 3 hours 37° C.
CPV = test: Inactivation of CPV in protein solutions, infectiousness titration; format: cell-based, Canine parvovirus; settings: Acriflavine 0.001 mg/ml
BPV = test: Inactivation of BPV, infectiousness titration; format: cell-based, Bovine parvovirus; settings: for Virus inactivation: BPV, 45° C.
PI3 virus = test: Inactivation of PI3 virus, infectiousness titration; format: cell-based, Bovine parainfluenza 3 virus; settings: 37° C.; for Virus inactivation: EME medium
[1] = system: envelope-containing and nonenveloped virus species; format: cell-based
[2] = Beriplex + PPV, Acriflavine 0.001 mg/ml, 30° C., 0 h
[3] = Beriplex + PPV, Acriflavine 0.001 mg/ml, 30° C., 1 h
[4] = Beriplex + PPV, Acriflavine 0.001 mg/ml, 30° C., 2 h
[5] = Beriplex + PPV, Acriflavine 0.001 mg/ml, 30° C., 3 h
[6] = Beriplex + PPV, Acriflavine 0.001 mg/ml, 37° C., 3 h
[7] = Haemate + PPV, Acriflavine 0.001 mg/ml, 37° C., 3 h
[8] = Beriplex + PPV, BACI 0.001 mg/ml, 30° C., 0 h
[9] = Beriplex + PPV, BACI 0.001 mg/ml, 30° C., 1 h
[10] = Beriplex + PPV, BACI 0.001 mg/ml, 30° C., 2 h
[11] = Beriplex + PPV, BACI 0.001 mg/ml, 30° C., 3 h
[12] = Beriplex + PPV, BACI 0.01 mg/ml, 37° C., 0 h
[13] = Beriplex + PPV, BACI 0.01 mg/ml, 37° C., 1 h
[14] = Beriplex + PPV, BACI 0.01 mg/ml, 37° C., 2 h
[15] = Beriplex + PPV, BACI 0.01 mg/ml, 37° C., 3 h

**Q.** With “3,6-diamino-10-methylacridinium, chloride and 3,6-acridineidiamine [Acriflavine]” as the compound, how does the Titer reduction (PPV; [2]) read?
**A.** The Titer reduction was 0 log10/ml.

**Q.** What about the Treatment titer (PPV; [2]) of the same compound?
**A.** Its Treatment titer is 4.8 log10/ml.

**Q.** And the Titer reduction (PPV; [3])?
**A.** Its Titer reduction is 1.0 log10/ml.

**Q.** What about the Treatment titer (PPV; [3]) of the same compound?
**A.** Its Treatment titer is 3.6 log10/ml.

**Q.** And the Titer reduction (PPV; [4])?
**A.** The Titer reduction was 1.7 log10/ml.

**Q.** What about the Treatment titer (PPV; [4]) of the same compound?
**A.** Its Treatment titer is 2.9 log10/ml.

**Q.** What about the Titer reduction (PPV; [5]) of the same compound?
**A.** The Titer reduction was “≧3.3 log10/ml”.

**Q.** What about the Treatment titer (PPV; [5]) of the same compound?
**A.** The Treatment titer was “≦1.5 log10/ml”.

**Q.** And the Titer reduction (PPV; [6])?
**A.** Its Titer reduction is “≧3.3 log10/ml”.

**Q.** And the Treatment titer (PPV; [6])?
**A.** Its Treatment titer is “≦1.5 log10/ml”.

**Q.** And the Titer reduction (PPV; [7])?
**A.** The Titer reduction was “≧3.8 log10/ml”.

**Q.** And the Treatment titer (PPV; [7])?
**A.** The Treatment titer was “≦1.5 log10/ml”.

**Q.** And the Titer reduction (BVDV)?
**A.** Its Titer reduction is “≧6.0 log10/ml”.

**Q.** What about the Treatment titer (BVDV) of the same compound?
**A.** Its Treatment titer is 0 log10/ml.

**Q.** And the Virus inactivation (IBRV; 37° C., 2 hours)?
**A.** Its Virus inactivation is 3.3 log10/ml.

**Q.** And the “Activity (clotting activity)” value (Beriplex ® Factor II; A 0.001 mg/ml)?
**A.** The value was 50.0 IU/ml.

**Q.** What about the “Activity (clotting activity)” value (Beriplex ® Factor II; A 0.002 mg/ml) of the same compound?
**A.** The value was 48.8 IU/ml.

**Q.** And the “Activity (clotting activity)” value (Haemate ® Factor VIII; A 0.001 mg/ml)?
**A.** Its value is 16.8 IU/ml.

**Q.** What about the “Activity (clotting activity)” value (Haemate ® Factor VIII; A 0.002 mg/ml) of the same compound?
**A.** The value was 18.9 IU/ml.

**Q.** What about the Titer reduction (CPV; FCS + CPV, 37° C., 3 h) of the same compound?
**A.** The Titer reduction was 3.5 log10/ml.

**Q.** And the Treatment titer (CPV; FCS + CPV, 37° C., 3 h)?
**A.** The Treatment titer was 3.4 log10/ml.

**Q.** And the Titer reduction (CPV; FCS + CPV, 45° C., 0 h)?
**A.** The Titer reduction was 0 log10/ml.

**Q.** And the Treatment titer (CPV; FCS + CPV, 45° C., 0 h)?
**A.** The Treatment titer was 6.8 log10/ml.

**Q.** And the Titer reduction (CPV; FCS + CPV, 45° C., 1 h)?
**A.** Its Titer reduction is 2.0 log10/ml.

**Q.** What about the Treatment titer (CPV; FCS + CPV, 45° C., 1 h) of the same compound?
**A.** The Treatment titer was 4.8 log10/ml.

**Q.** And the Titer reduction (CPV; FCS + CPV, 45° C., 2 h)?
**A.** Its Titer reduction is 3.3 log10/ml.

**Q.** And the Treatment titer (CPV; FCS + CPV, 45° C., 2 h)?
**A.** Its Treatment titer is 3.5 log10/ml.

**Q.** What about the Titer reduction (CPV; FCS + CPV, 45° C., 3 h) of the same compound?
**A.** The Titer reduction was 4.2 log10/ml.

**Q.** And the Treatment titer (CPV; FCS + CPV, 45° C., 3 h)?
**A.** The Treatment titer was 2.8 log10/ml.

**Q.** What about the Titer reduction (CPV; Venimmun + CPV, 37° C., 3 h) of the same compound?
**A.** The Titer reduction was 3.0 log10/ml.

**Q.** What about the Treatment titer (CPV; Venimmun + CPV, 37° C., 3 h) of the same compound?
**A.** Its Treatment titer is 3.9 log10/ml.

**Q.** With `CCOc1ccc2nc3cc(N)ccc3c(N)c2c1` [Ethacridine lactate] as the compound, how does the Titer reduction (IBRV; 0 h) read?
**A.** The Titer reduction was 0 log10/ml.

**Q.** And the Treatment titer (IBRV; 0 h)?
**A.** Its Treatment titer is 6.5 log10/ml.

**Q.** What about the Titer reduction (IBRV; 1 h) of the same compound?
**A.** Its Titer reduction is 3.7 log10/ml.

**Q.** And the Treatment titer (IBRV; 1 h)?
**A.** Its Treatment titer is 2.0 log10/ml.

**Q.** And the Titer reduction (IBRV; 2 h)?
**A.** Its Titer reduction is “≧2.8 log10/ml”.

**Q.** What about the Treatment titer (IBRV; 2 h) of the same compound?
**A.** Its Treatment titer is “≦1.5 log10/ml”.

**Q.** Which Virus inactivation (BPV; BACI 0.01 mg/ml, 1 hour) does the source give for Benzalkonium chloride [BACI] here?
**A.** Its Virus inactivation is 0 log10/ml.

**Q.** What about the Virus inactivation (BPV; BACI 0.01 mg/ml, 2 hours) of the same compound?
**A.** The Virus inactivation was 0 log10/ml.

**Q.** And the Virus inactivation (BPV; BACI 0.05 mg/ml, 1 hour)?
**A.** Its Virus inactivation is 0 log10/ml.

**Q.** What about the Virus inactivation (BPV; BACI 0.05 mg/ml, 2 hours) of the same compound?
**A.** Its Virus inactivation is 0 log10/ml.

**Q.** And the “Inactivation of BPV, in words” value (BPV; test conditions of Table 2, 45° C., 1 or 2 hours)?
**A.** Its value is “not inactivated”.

**Q.** What about the Titer reduction (PPV; [8]) of the same compound?
**A.** Its Titer reduction is 0 log10/ml.

**Q.** And the Treatment titer (PPV; [8])?
**A.** The Treatment titer was 4.8 log10/ml.

**Q.** What about the Titer reduction (PPV; [9]) of the same compound?
**A.** Its Titer reduction is 0 log10/ml.

**Q.** And the Treatment titer (PPV; [9])?
**A.** The Treatment titer was 4.8 log10/ml.

**Q.** And the Titer reduction (PPV; [10])?
**A.** The Titer reduction was 0 log10/ml.

**Q.** And the Treatment titer (PPV; [10])?
**A.** Its Treatment titer is 4.8 log10/ml.

**Q.** What about the Titer reduction (PPV; [11]) of the same compound?
**A.** The Titer reduction was 0 log10/ml.

**Q.** And the Treatment titer (PPV; [11])?
**A.** Its Treatment titer is 4.6 log10/ml.

**Q.** And the Titer reduction (PPV; [12])?
**A.** Its Titer reduction is 0 log10/ml.

**Q.** And the Treatment titer (PPV; [12])?
**A.** The Treatment titer was 4.8 log10/ml.

**Q.** And the Titer reduction (PPV; [13])?
**A.** The Titer reduction was 0 log10/ml.

**Q.** And the Treatment titer (PPV; [13])?
**A.** The Treatment titer was 4.6 log10/ml.

**Q.** And the Titer reduction (PPV; [14])?
**A.** The Titer reduction was 0 log10/ml.

**Q.** What about the Treatment titer (PPV; [14]) of the same compound?
**A.** Its Treatment titer is 4.6 log10/ml.

**Q.** What about the Titer reduction (PPV; [15]) of the same compound?
**A.** The Titer reduction was 0.2 log10/ml.

**Q.** And the Treatment titer (PPV; [15])?
**A.** The Treatment titer was 4.6 log10/ml.

**Q.** What about the Virus inactivation (PI3 virus; BACI 0.005 mg/ml, 0-0.03 h) of the same compound?
**A.** The Virus inactivation was “≧5.9 log10/ml”.

**Q.** And the Virus inactivation (PI3 virus; BACI 0.0125 mg/ml, 0-0.03 h)?
**A.** The Virus inactivation was 0.5 log10/ml.

**Q.** What about the Virus inactivation (PI3 virus; BACI 0.0125 mg/ml, 1 h) of the same compound?
**A.** The Virus inactivation was 1.3 log10/ml.

**Q.** And the Virus inactivation (PI3 virus; BACI 0.025 mg/ml, 0-0.03 h)?
**A.** The Virus inactivation was 1.4 log10/ml.

**Q.** And the Virus inactivation (PI3 virus; BACI 0.025 mg/ml, 1 h)?
**A.** Its Virus inactivation is “≧5.3 log10/ml”.

**Q.** What about the Virus inactivation (PI3 virus; BACI 0.05 mg/ml, 1 h) of the same compound?
**A.** The Virus inactivation was “≧5.3 log10/ml”.

**Q.** What about the Virus inactivation (PI3 virus; BACI 0.1 mg/ml, 0-0.03 h) of the same compound?
**A.** Its Virus inactivation is “≧5.9 log10/ml”.

**Q.** And the Virus inactivation (PI3 virus; BACI 0.1 mg/ml, 1 h)?
**A.** The Virus inactivation was “≧5.3 log10/ml”.

**Q.** What about the “Inactivation of PI3 virus, in words” value (PI3 virus; high doses of BACI (0.1 mg/ml, 0.05 mg/ml), time needed to mix, sample and titrate) of the same compound?
**A.** Its value is “infectious virus was no longer detectable”.

**Q.** What about the “Activity (clotting activity)” value (Beriplex ® Factor II; BACI 0.02 mg/ml) of the same compound?
**A.** Its value is 61.3 IU/ml.

**Q.** What about the “Activity (clotting activity)” value (Haemate ® Factor VIII; BACI 0.02 mg/ml) of the same compound?
**A.** The value was 20.7 IU/ml.

**Q.** What about the “Virus species inactivated, in words” value [1] of the same compound?
**A.** The value was “only envelope-containing viruses can be, inactivated”.

**Q.** Which “Activity decrease of clotting preparation after acridines/benzalkonium chloride inactivation, in words” value (Haemate ® Factor VIII; Table 7) does the source give for “Haemate®: Concentrate from clotting factor VIII and Von-Willebrand factor, pasteurized (Behringwerke AG)” here?
**A.** The value was “tolerable”.
